Measurements as given in PubChem BioAssay (NCI).
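48-hour exposure; five concentrations; linearly interpolated endpoints. At the GI50, growth is halved. At the TGI there is no net growth.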

Columns and labels:
Experiment in all cases: inhibition of tumour cell growth, NCI panel, 48 h
[1] = test system: CCRF-CEM leukemia
[2] = test system: DU-145 prostate
[3] = test system: HCT-116 colon
[4] = test system: HOP-92 NSCLC
[5] = test system: KM12 colon
[6] = test system: MALME-3M melanoma
[7] = test system: NCI/ADR-RES ovarian
[8] = test system: OVCAR-4 ovarian
[9] = test system: SF-295 CNS
[10] = test system: MDA-N

Row | SMILES | GI50 [1] | TGI [1] | GI50 [2] | TGI [2] | GI50 [3] | TGI [3] | GI50 [4] | TGI [4] | GI50 [5] | TGI [5] | GI50 [6] | TGI [6] | GI50 [7] | TGI [7] | GI50 [8] | TGI [8] | GI50 [9] | TGI [9] | TGI [10]
1 | O=C(N[C@@H](Cc1coc2ccccc12)B(O)O)[C@@H]1C[C@H]2CC[C@@H]1O2 | 1.2 µM | > 100 µM | 7.5 µM | > 100 µM | 3.25 µM | 27.1 µM | 5.06 µM | 80.8 µM | 11.4 µM | 57.9 µM | 3.07 µM | 20.8 µM | 48 µM | > 100 µM | 7.36 µM | > 100 µM | 3.93 µM | 17.6 µM | 
2 | COc1ccc2c(c1)c(-c1nc(-c3c[nH]c4ncccc34)cs1)cn2CCCCN1CCCCC1 | 1.83 µM | 3.5 µM | 1.73 µM | 3.22 µM |  |  | 1.18 µM | 2.48 µM |  |  |  |  |  |  |  |  | 1.6 µM | 3.02 µM | 
3 | CNC(C)C(O)c1ccc2oc3cc(=O)c4ccccc4c-3nc2c1 (centres undefined) |  | 47 µM |  | 18 µM |  | 21.8 µM |  | > 100 µM |  | 49.8 µM |  | 19.9 µM |  | > 100 µM |  | 36.6 µM |  | 15.6 µM | 
4 | Nc1nc(SCc2ccccc2Cl)c2[nH]cnc2n1 |  | > 100 µM |  |  |  | > 100 µM |  |  |  | > 100 µM |  | > 100 µM |  |  |  |  |  | > 100 µM | 
5 | C=CCCC1(C)CCCNC1=S (centres undefined) |  | > 100 µM |  |  |  | > 100 µM |  | > 100 µM |  | > 100 µM |  | > 100 µM |  |  |  | > 100 µM |  | > 100 µM | 
6 | CCOC(=O)c1sc2nc(SC)nc(Nc3ccc4c(c3)OCCO4)c2c1N |  | > 100 µM |  | 33.5 µM |  | 42.1 µM |  | 27.4 µM |  | 78.5 µM |  | 30.5 µM |  | 44.7 µM |  | 30.8 µM |  | 58.1 µM | > 100 µM
7 | CCCO[C@@H]1[C@@H](OC(C)=O)[C@@H](OC(C)=O)C(C)(C)/C=C/[C@H](C)C(=O)[C@@]2(OC(C)=O)C[C@@](C)(OC(C)=O)[C@H](OC(C)=O)[C@@H]2[C@H]2OC(=O)CC[C@@]12OC(=O)c1ccccc1 |  | > 25 µM |  | > 25 µM |  | > 25 µM |  | > 25 µM |  | > 25 µM |  | > 25 µM |  | > 25 µM |  | > 25 µM |  | > 25 µM | > 25 µM
8 | O=C1c2ccccc2OCC12OC21C=CC(Cl)=CC1 (centres undefined) |  |  |  | 38.6 µM |  | 43.6 µM |  | > 100 µM |  | 41.9 µM |  | 44.8 µM |  | 50.1 µM |  | 46.4 µM |  |  | 43.8 µM
9 | CCC(=O)OCN(C)c1nc(N(C)COC(=O)CC)nc(N(C)COC(=O)CC)n1 |  | > 100 µM |  | > 100 µM |  | 64 µM |  | > 100 µM |  | > 100 µM |  | > 100 µM |  | > 100 µM |  | > 100 µM |  | > 100 µM | > 100 µM
10 | Cc1nc2ccc(S(=O)(=O)Nc3nccs3)cc2c(=O)n1NS(=O)(=O)c1nccs1 |  | > 100 µM |  | > 100 µM |  |  |  | > 100 µM |  | > 100 µM |  | > 100 µM |  | > 100 µM |  | > 100 µM |  | > 100 µM | > 100 µM
11 | CCCCC1C=Cn2c(=O)oc3c(OC(C)C)c(C)c(O)c1c32 (centres undefined) |  | 5.1 µM |  | 5.5 µM |  | 7.07 µM |  | 12.2 µM |  | 8.26 µM |  | 4.1 µM |  | 5.88 µM |  | 2.37 µM |  | 7.16 µM | 9.67 µM
